Data as given in the supplement of paper PMC10307832.

What was measured:
Experiment in all cases: relative viability (nuclei count vs DMSO), 5 days (fraction); higher = more cells survive
Afatinib = compound: CN(C)C/C=C/C(=O)Nc1cc2c(Nc3ccc(F)c(Cl)c3)ncnc2cc1O[C@H]1CCOC1 [Afatinib]
Method in brief: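 On vehicle-anchored 1536-well plates, lung cancer cell lines held overnight at 37 °C were pinned with five library-drug doses (not always all listed) spaced by √10. With no medium change over 5 days, they were then fixed, permeabilised and Hoechst-stained in one step and imaged at 4×. MetaXpress counted nuclei, and viability is the median across plates of treated-well over vehicle-well nuclei. Acceptance needed control CV below 25% and at least one doubling.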

Afatinib + Navitoclax = compound: CN(C)C/C=C/C(=O)Nc1cc2c(Nc3ccc(F)c(Cl)c3)ncnc2cc1O[C@H]1CCOC1 [Afatinib] + CC1(C)CCC(c2ccc(Cl)cc2)=C(CN2CCN(c3ccc(C(=O)NS(=O)(=O)c4ccc(N[C@H](CCN5CCOCC5)CSc5ccccc5)c(S(=O)(=O)C(F)(F)F)c4)cc3)CC2)C1 [Navitoclax] (partner 0.5 µM)
Method in brief: (§1)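 Each reported value is a median over duplicate plates. It expresses relative viability: treated-well nuclei count divided by vehicle-well nuclei count. Lung cancer cell lines in 1536-well plates were dosed by pin tool a day after seeding, alone with one drug or with a fixed anchor-drug dose plus five library-drug doses (not always all listed) in √10 steps, and nuclei were counted after 5 days.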

Afatinib + Tozasertib = compound: CN(C)C/C=C/C(=O)Nc1cc2c(Nc3ccc(F)c(Cl)c3)ncnc2cc1O[C@H]1CCOC1 [Afatinib] + Cc1cc(Nc2cc(N3CCN(C)CC3)nc(Sc3ccc(NC(=O)C4CC4)cc3)n2)n[nH]1 [Tozasertib] (partner 0.1 µM)
Method in brief: as §1

Afatinib + Phenformin = compound: CN(C)C/C=C/C(=O)Nc1cc2c(Nc3ccc(F)c(Cl)c3)ncnc2cc1O[C@H]1CCOC1 [Afatinib] + N=C(N)NC(=N)NCCc1ccccc1 [Phenformin] (partner 250 µM)
Method in brief: as §1

Cell Line	relative viability (Afatinib; 0.005 µM)	relative viability (Afatinib; 0.01581 µM)	relative viability (Afatinib; 0.05 µM)	relative viability (Afatinib; 0.1581 µM)	relative viability (Afatinib; 0.5 µM)	relative viability (Afatinib + Navitoclax; first compound 0.005 µM)	relative viability (Afatinib + Navitoclax; first compound 0.01581 µM)	relative viability (Afatinib + Navitoclax; first compound 0.05 µM)	relative viability (Afatinib + Navitoclax; first compound 0.5 µM)	relative viability (Afatinib + Tozasertib; first compound 0.005 µM)	relative viability (Afatinib + Tozasertib; first compound 0.01581 µM)	relative viability (Afatinib + Tozasertib; first compound 0.05 µM)	relative viability (Afatinib + Tozasertib; first compound 0.1581 µM)	relative viability (Afatinib + Tozasertib; first compound 0.5 µM)	relative viability (Afatinib + Phenformin; first compound 0.005 µM)	relative viability (Afatinib + Phenformin; first compound 0.01581 µM)	relative viability (Afatinib + Phenformin; first compound 0.05 µM)	relative viability (Afatinib + Phenformin; first compound 0.1581 µM)	relative viability (Afatinib + Phenformin; first compound 0.5 µM)	relative viability (Afatinib + Navitoclax; first compound 0.1581 µM)
NCI-H2228	1.24	0.884	0.812	0.953	1.05	0.864	0.906	0.865	0.51	0.271	0.259	0.217	0.191	0.205	0.279	0.273	0.31	0.257	0.242	
NCI-H2347	1.07	1.02	0.976	0.961	0.994	0.932	0.79	0.873	0.804	0.509	0.593	0.596	0.484	0.603	0.357	0.456	0.31	0.381	0.415	0.903
NCI-H2405	1.01	0.959	1.08	0.957	1.02	0.857	0.879	0.912	1.07	0.779	0.741	0.741	0.646	0.824	0.339	0.413	0.435	0.363	0.392	0.715
NCI-H3122	0.999	1.01	1.01	0.929	0.999	1.02	0.976	1.05	1.03	0.452	0.504	0.394	0.327	0.459	0.385	0.382	0.415	0.363	0.423	0.91
PC-3 [JPC-3]	0.553	0.406	0.443	0.439	0.469	0.398	0.345	0.341	0.32	0.443	0.416	0.428	0.291	0.37	0.338	0.338	0.258	0.285	0.306	0.324
PC-14	0.371	0.224	0.298		0.282	0.377	0.334	0.372	0.349	0.228	0.257	0.254	0.232	0.247	0.173	0.123	0.175	0.161	0.171	0.334
RERF-LC-KJ	0.92	0.938	0.908	0.794	0.831	0.786	0.766	0.874	0.751	0.502	0.611	0.575	0.424	0.484	0.423	0.393	0.342	0.315	0.335	
SK-LU-1	1.07	1	1.07	1.05	1.06	0.98	0.719	0.757	0.842	0.332	0.32	0.355	0.322	0.277	0.634	0.536	0.605	0.511	0.47	0.861
SK-MES-1	0.816	0.706	0.568	0.39	0.42	1.16	0.965	0.655	0.556	0.928	0.897	0.723	0.613	0.532	0.547	0.64	0.389	0.332	0.369	0.731
SW 1573	0.978	0.962	1	0.962	0.925	0.878	1.08	1.13	0.943	0.16	0.175	0.202	0.158	0.171	0.387	0.376	0.353	0.299	0.393	0.819
UMC-11	1.03	0.955	1.03	0.959	0.983	0.361	0.305	0.294	0.293	0.206	0.199	0.198	0.207	0.187	0.358	0.33	0.324	0.314	0.303	0.296
